Results published in the NIST ThermoML archive (doi:10.1016/j.jct.2016.06.034).
± gives the expanded uncertainty stated by the source.

Test: mn = molality of the nth substance listed, in mol/kg
Settings: 84.5 kPa, Liquid; for electrical conductivity: Alternating current cell with electrodes; for speed of sound: Frequency=3 MHz, Sing-around technique in a fixed-path interferometer; for mass density: Vibrating tube method

CCCCCCCCCCn1cc[n+](C)c1.[Br-] [1-decyl-3-methylimidazolium bromide] + O
Settings	electrical conductivity [S/m]	mass density [kg/m3]	speed of sound [m/s]
298.15 K, m1 = 0.0095	–	997.416 ± 0.11	1498.6 ± 1.2
298.15 K, m1 = 0.01379	–	997.587 ± 0.11	1499.5 ± 1.2
298.15 K, m1 = 0.01652	–	997.693 ± 0.11	1500 ± 1.2
298.15 K, m1 = 0.02179	–	997.899 ± 0.11	1500.9 ± 1.2
298.15 K, m1 = 0.02615	–	998.07 ± 0.11	1501.7 ± 1.2
298.15 K, m1 = 0.03106	–	998.263 ± 0.11	1502.5 ± 1.2
298.15 K, m1 = 0.03338	–	998.353 ± 0.11	1502.9 ± 1.2
298.15 K, m1 = 0.03397	0.283 ± 0.0046	–	–
298.15 K, m1 = 0.03638	0.3 ± 0.0048	–	–
298.15 K, m1 = 0.03819	–	998.54 ± 0.11	1503.7 ± 1.2
298.15 K, m1 = 0.03875	0.317 ± 0.0049	–	–
298.15 K, m1 = 0.04039	0.327 ± 0.0048	–	–
298.15 K, m1 = 0.0406	–	998.636 ± 0.11	1503.9 ± 1.2
298.15 K, m1 = 0.04217	0.338 ± 0.0047	–	–
298.15 K, m1 = 0.04332	–	998.732 ± 0.11	1504.2 ± 1.2
298.15 K, m1 = 0.04391	0.346 ± 0.0045	–	–
298.15 K, m1 = 0.04608	0.354 ± 0.0045	–	–
298.15 K, m1 = 0.04614	–	998.829 ± 0.11	1504.4 ± 1.2
298.15 K, m1 = 0.04825	0.361 ± 0.0045	–	–
298.15 K, m1 = 0.05051	0.368 ± 0.0046	–	–
298.15 K, m1 = 0.0526	0.373 ± 0.0046	–	–
298.15 K, m1 = 0.05487	0.379 ± 0.0047	–	–
298.15 K, m1 = 0.05515	–	999.136 ± 0.11	1504.7 ± 1.2
298.15 K, m1 = 0.05749	0.386 ± 0.0048	–	–
298.15 K, m1 = 0.06017	0.392 ± 0.0048	–	–
298.15 K, m1 = 0.06271	0.398 ± 0.0049	–	–
298.15 K, m1 = 0.06396	–	999.429 ± 0.11	1504.8 ± 1.2
298.15 K, m1 = 0.07815	–	999.895 ± 0.11	1504.9 ± 1.2
298.15 K, m1 = 0.122	–	1001.31 ± 0.11	1505.1 ± 1.2
298.15 K, m1 = 0.1726	–	1002.91 ± 0.11	1505.4 ± 1.2
298.15 K, m1 = 0.2247	–	1004.51 ± 0.11	1505.7 ± 1.2
298.15 K, m1 = 0.2539	–	1005.39 ± 0.11	1505.9 ± 1.2
303.15 K, m1 = 1e-05	0.00018	–	–
303.15 K, m1 = 3e-05	0.000342	–	–
303.15 K, m1 = 4e-05	0.000511	–	–
303.15 K, m1 = 5e-05	0.000676	–	–
303.15 K, m1 = 7e-05	0.000835	–	–
303.15 K, m1 = 8e-05	0.001	–	–
303.15 K, m1 = 0.00015	0.00183	–	–
303.15 K, m1 = 0.00023	0.00267 ± 0.005	–	–
303.15 K, m1 = 0.00038	0.00443 ± 0.0049	–	–
303.15 K, m1 = 0.00053	0.00608 ± 0.0049	–	–
303.15 K, m1 = 0.00082	0.00939 ± 0.0049	–	–
303.15 K, m1 = 0.00142	0.016 ± 0.0048	–	–
303.15 K, m1 = 0.0023	0.0256 ± 0.0047	–	–
303.15 K, m1 = 0.00351	0.0384 ± 0.0047	–	–
303.15 K, m1 = 0.00463	0.0502 ± 0.0047	–	–
303.15 K, m1 = 0.00617	0.0665 ± 0.0046	–	–
303.15 K, m1 = 0.00896	0.0945 ± 0.0045	–	–
303.15 K, m1 = 0.0095	–	–	1510.8 ± 1.2
303.15 K, m1 = 0.01168	0.121 ± 0.0045	–	–
303.15 K, m1 = 0.01379	–	–	1511.6 ± 1.2
303.15 K, m1 = 0.01458	0.148 ± 0.0045	–	–
303.15 K, m1 = 0.01652	–	–	1512 ± 1.2
303.15 K, m1 = 0.01746	0.175 ± 0.0045	–	–
303.15 K, m1 = 0.01986	0.197 ± 0.0046	–	–
303.15 K, m1 = 0.02179	–	–	1512.8 ± 1.2
303.15 K, m1 = 0.02235	0.218 ± 0.0047	–	–
303.15 K, m1 = 0.0248	0.24 ± 0.0048	–	–
303.15 K, m1 = 0.02615	–	–	1513.5 ± 1.2
303.15 K, m1 = 0.0272	0.26 ± 0.0049	–	–
303.15 K, m1 = 0.02958	0.28 ± 0.005	–	–
303.15 K, m1 = 0.03106	–	–	1514.3 ± 1.2
303.15 K, m1 = 0.03192	0.299 ± 0.0051	–	–
303.15 K, m1 = 0.03338	–	–	1514.7 ± 1.2
303.15 K, m1 = 0.03356	0.312 ± 0.0051	–	–
303.15 K, m1 = 0.0353	0.326 ± 0.0053	–	–
303.15 K, m1 = 0.03765	0.345 ± 0.0054	–	–
303.15 K, m1 = 0.03819	–	–	1515.4 ± 1.2
303.15 K, m1 = 0.03995	0.361 ± 0.0054	–	–
303.15 K, m1 = 0.0406	–	–	1515.5 ± 1.2
303.15 K, m1 = 0.04173	0.373 ± 0.0053	–	–
303.15 K, m1 = 0.04332	–	–	1515.8 ± 1.2
303.15 K, m1 = 0.0437	0.385 ± 0.0052	–	–
303.15 K, m1 = 0.04561	0.393 ± 0.0051	–	–
303.15 K, m1 = 0.04614	–	–	1516 ± 1.2
303.15 K, m1 = 0.0476	0.401 ± 0.0051	–	–
303.15 K, m1 = 0.04986	0.409 ± 0.0051	–	–
303.15 K, m1 = 0.05209	0.416 ± 0.0052	–	–
303.15 K, m1 = 0.05436	0.423 ± 0.0053	–	–
303.15 K, m1 = 0.05515	–	–	1516.2 ± 1.2
303.15 K, m1 = 0.05698	0.43 ± 0.0053	–	–
303.15 K, m1 = 0.0591	0.436 ± 0.0054	–	–
303.15 K, m1 = 0.06148	0.443 ± 0.0056	–	–
303.15 K, m1 = 0.06396	–	–	1516.2 ± 1.2
303.15 K, m1 = 0.07815	–	–	1516.2 ± 1.2
303.15 K, m1 = 0.122	–	–	1516.1 ± 1.2
303.15 K, m1 = 0.1726	–	–	1516 ± 1.2
303.15 K, m1 = 0.2247	–	–	1516 ± 1.2
303.15 K, m1 = 0.2539	–	–	1515.9 ± 1.2
